{"source": "patent US20090232744A1", "about": "“Macrolide compositions having improved taste and stability” (priority 2008, published 2009)", "key": {"[1]": {"tested_on": "Burkholderia cepacia ATCC 17759", "assay": "MIC, agar dilution method", "format": "cell-based", "details": "ATCC17759, Mueller-Hinton agar, aerobic, 16-20 h at 36° C.", "text": "(§1) The formulations prepared according to Examples 11, 12 and 13, were used to evaluate the Minimal Inhibitory Concentration (MIC) required to inhibit the growth of the following organisms: Burkholderia cepacia, Haemophilus influenzae, and Pseudomonas aeruginosa, using the agar dilution method based on DIN 58940 and 58944 according to NCCLS (National Committee on Clinical Laboratory Standards) criteria. […] To determine MIC, Petri dishes containing Mueller-Hinton agar supplemented with agar-agar, or chocolate agar were prepared. Dilutions of the formulations prepared under Examples 11, 12, 13 and 14 were prepared in aqua purificata, resulting in solutions containing 1000 μg drug per ml (with exception of the formulation only containing levofloxacin, where a dilution containing 640 μg/ml was prepared). […] Two agar plates were poured for each test concentration and culture medium. After solidification and drying, the agar plates were inoculated with the test organisms and incubated as described in Table 7. [table] The MIC was given as the lowest concentration of the active substance at which there was no macroscopically visible growth. Minimal, barely visible growth or few small individual colonies were evaluated as inhibition. The MIC readings are generally subject to an error of up to two dilutions. […] For Haemophilus spp., it was defined that a breakpoint ≦4 μg/ml is classified as susceptible."}, "[2]": {"tested_on": "Haemophilus influenzae ATCC 49247", "assay": "MIC, agar dilution method", "format": "cell-based", "details": "for MIC: ATCC49247, Chocolat agar, microaerophile, 16-20 h at 36° C.", "text": "as §1"}, "[3]": {"tested_on": "Pseudomonas aeruginosa ATCC 9027", "assay": "MIC, agar dilution method", "format": "cell-based", "details": "ATCC9027, Mueller-Hinton agar, aerobic, 16-20 h at 36° C.", "text": "as §1"}, "[4]": {"details": "cited from earlier work"}, "[5]": {"details": "after single oral dose administration"}}}
{"smiles": "CC[C@H]1OC(=O)[C@H](C)[C@@H](O[C@H]2C[C@@](C)(OC)[C@@H](O)[C@H](C)O2)[C@H](C)[C@@H](O[C@@H]2O[C@H](C)C[C@H](N(C)C)[C@H]2O)[C@](C)(O)C[C@@H](C)CN(C)[C@H](C)[C@@H](O)[C@]1(C)O", "note": "[Azi., azithromycin]", "values": [{"measurement": "MIC", "setting": "[1]", "result": 25, "unit": "µg/mL"}, {"measurement": "susceptibility classification", "setting": "[2]", "result": "resistant"}, {"measurement": "MIC", "setting": "[2]", "result": 25, "unit": "µg/mL"}, {"measurement": "MIC", "setting": "[3]", "result": 6.25, "unit": "µg/mL"}, {"measurement": "concentration in sputum exceeds the plasma concentration", "setting": "[4]; after multiple oral doses", "result": 67, "unit": "fold"}, {"measurement": "concentration in alveolar macrophages exceeds plasma concentration", "setting": "[4]; [5]", "result": 170, "unit": "fold"}, {"measurement": "concentration in bronchial mucosa exceeds plasma concentration", "setting": "[4]; [5]", "result": 29, "unit": "fold"}]}
{"smiles": "C[C@H]1COc2c(N3CCN(C)CC3)c(F)cc3c(=O)c(C(=O)O)cn1c23", "note": "[Levo., levofloxacin]", "values": [{"measurement": "MIC", "setting": "[1]", "result": 4, "unit": "µg/mL"}, {"measurement": "MIC", "setting": "[2]", "result": 0.25, "unit": "µg/mL"}, {"measurement": "MIC", "setting": "[3]", "result": 0.5, "unit": "µg/mL"}]}
{"smiles": "NC[C@H]1O[C@H](O[C@H]2[C@H](O)[C@@H](O[C@H]3O[C@H](CO)[C@@H](O)[C@H](N)[C@H]3O)[C@H](N)C[C@@H]2N)[C@H](N)C[C@@H]1O", "note": "[Tobr., tobramycin]", "values": [{"measurement": "MIC", "setting": "[1]", "result": 50, "unit": "µg/mL"}, {"measurement": "susceptibility classification", "setting": "[2]", "result": "resistant"}, {"measurement": "MIC", "setting": "[2]", "result": 50, "unit": "µg/mL"}, {"measurement": "MIC", "setting": "[3]", "result": 0.781, "unit": "µg/mL"}]}
